From patent US9682024B2, “Protection against sunburn and skin problems with topical and orally-ingested dosages of zeaxanthin” (ZeaVision, LLC, priority 2002, dated 2017)

What was measured:
[1] = according to Lorenz, US 6,433,025; cited from earlier work
retinas = conditions: in vivo; cited from earlier work
human fibroblast cells = conditions: Eichler et al 2002; cited from earlier work
[2] = Tolerability and excretion of high oral zeaxanthin dosages; type: in vivo, human
skin [3] = test: Minimal erythemal dosage (MED) test with medical-grade UV lamp after oral zeaxanthin; type: in vivo, human
skin [4] = test: Sunburn protection during prolonged exposure to direct sunlight after oral zeaxanthin; type: in vivo, human
Method: (§1) That dosage was in the range of about 60 mg of zeaxanthin per day for roughly 2 weeks, then about 80 mg/day for a week).
While in the Caribbean, they intentionally exposed themself to direct sunlight at a substantially higher intensity than they normally received in their home state of Missouri, for sufficient periods of time to give them an “onset” type of sunburn, which would convert to a suntan over a span of several days if they took proper care of their skin and put lotion on it. […] Instead, any mild redness they experienced in the evening, at the end of a day with a prolonged session in the sun, was not accompanied by sensations of pain, burning, tightness, or dryness in the skin, and it converted to a normal (or slightly reddish, but not uncomfortable) suntan within less than 24 hours.
(§2) One coworker began taking 10 mg/day during April, and increased to 20 mg/day during May, and then increased to 40 mg/day during June. […] In July, they increased their dosage to 80 mg/day during several week-long periods, to see what effect it would have on skin color, and on sunburn resistance.
On a couple of weekend days during July, and during a family vacation in early August, they deliberately subjected themself to prolonged sun exposure without any sun-blocking lotion, including sessions that normally would have caused them substantial or severe sunburns accompanied by serious discomfort. Instead of receiving those types of sunburns, by the evening of a day like that, they could detect some redness in their skin color, and a heightened condition of skin sensitivity; however, they felt no serious discomfort or sense of “radiating heat” in their skin, and no interference with their ability to sleep comfortably; in addition, by the following day, the redness appeared to be entirely gone.
(§3) After seeing and hearing the highly positive results obtained by the two people described in Examples 1 and 2, another coworker decided to also begin taking zeaxanthin at 40 mg/day, starting a couple of weeks before going on a summer vacation with their family.
(§4) A third coworker began taking 10 mg of zeaxanthin per day. Although they were aware of the above-described anecdotal reports of sunburn protection being provided by higher dosages, they decided to not alter their dosage, and they stayed at a dosage of 10 mg/day.

skin [5] = test: Darkening of skin color after oral zeaxanthin; type: in vivo, human
Method: as §1, §2, §3, §4
Promptly after that baseline determination, this person began ingesting 30 mg of zeaxanthin per day (10 mg with […] morning meal, and 20 mg with […] evening meal, using the 10 mg capsules available from ZeaVision LLC). During that time, […] continued to take the same anti-oxidant regimen as before. […] […] then re-tested […], using the same UV lamp and procedures as before.

[6] = reported to US-FDA by Roche Vitamins Inc.; cited from earlier work
[7] = cited from earlier work
[8] = in vivo
Source text: One aspect of that project involved testing both zeaxanthin and lutein, in various dosages and formulations, to evaluate the increases that would result in circulating blood, and in retinal tissue, in human volunteers. A set of tests on human volunteers was developed with assistance by outside experts with skill and experience in that type of planning, and proper steps were taken to obtain informed consent from all volunteers.

lung cancer = conditions: smokers; daily ingestion of 30 to 60 mg/day; cited from earlier work
[9] = test system: skin diseases such as porphyria; conditions: cited from earlier work
skin cells in culture = conditions: quoted from Biesalski et al 2001; cited from earlier work

CC1=C(/C=C/C(C)=C/C=C/C(C)=C/C=C/C=C(C)/C=C/C=C(C)/C=C/C2=C(C)C(=O)[C@@H](O)CC2(C)C)C(C)(C)C[C@H](O)C1=O [astaxanthin]
potency as anti-oxidant protective agent versus other carotenoids [1]: roughly ten times the potency

CC1=C(/C=C/C(C)=C/C=C/C(C)=C/C=C/C=C(C)/C=C/C=C(C)/C=C/C2=C(C)C(=O)CCC2(C)C)C(C)(C)CCC1=O [canthaxanthin]
retinal side effect (retinas): canthaxanthin crystals were being formed and deposited in the retinas

CC1=C[C@H](O)CC(C)(C)[C@H]1/C=C/C(C)=C/C=C/C(C)=C/C=C/C=C(C)/C=C/C=C(C)/C=C/C1=C(C)C[C@@H](O)CC1(C)C [lutein]
amount of carotenoid needed for optimal protection (human fibroblast cells): 0.30 nmol/mg protein

CC(C)=CCC/C(C)=C/C=C/C(C)=C/C=C/C(C)=C/C=C/C=C(C)/C=C/C=C(C)/C=C/C=C(\C)CCC=C(C)C [lycopene]
amount of carotenoid needed for optimal protection (human fibroblast cells): 0.05 nmol/mg protein

CC1=C(/C=C/C(C)=C/C=C/C(C)=C/C=C/C=C(C)/C=C/C=C(C)/C=C/C2=C(C)C[C@@H](O)CC2(C)C)C(C)(C)C[C@H](O)C1 [zeaxanthin]
fecal coloration ([2]; high dosages, humans): changes in fecal coloration | adverse effects ([2]; second inventor, 80 mg/day): no adverse effects | MED increase, post-ingestion compared to pre-ingestion (skin [3]; each volunteer of the UV lamp tests, 30 mg/day or higher): > 30% | MED level relative to baseline value (skin [3]; first inventor, 60 mg/day for another 3 weeks, baseline 7): more than double | post-ingestion MED (minimal erythemal dosage) (skin [3]; first inventor, oral 30 mg/day for 3 weeks, baseline 7.0 minutes, on top of anti-oxidant regimen): 10.5 min | post-ingestion MED (minimal erythemal dosage) (skin [3]; first inventor, then 60 mg/day for another 3 weeks, baseline 7.0 minutes): 16 min | MED value relative to baseline (skin [3]; second volunteer, 60 mg/day for 20 days): doubled | post-ingestion MED (minimal erythemal dosage) (skin [3]; second volunteer, 60 mg/day for 20 days, baseline 5.0 minutes): 10 min | redness of longest-duration UV-exposed skin patches (skin [3]; two subjects after ingesting zeaxanthin, UV up to >20 minutes and up to 15 minutes): plateau effect | peeling or flaking of clearly UV-burned spots (skin [3]; two subjects, post-ingestion tests, after several days): did not begin peeling or flaking | time for mild redness to convert to normal suntan (skin [4]; Example 1, about 60 then 80 mg/day): less than 24 hours | sunburn after prolonged direct sunlight (skin [4]; Example 1, about 60 then 80 mg/day, Caribbean): did not get sunburned in the normal manner | sunburn after prolonged sun exposure without sun-blocking lotion (skin [4]; Example 2 coworker, up to 80 mg/day): excellent protection against sunburn | sunburn after prolonged sun exposure with no protective lotion (skin [4]; Example 3 coworker, 40 mg/day): had not suffered any sunburns | sunburn after prolonged session of exposure to the sun (skin [4]; Example 4 coworker, 10 mg/day): suffered a noticeable sunburn | skin color change (skin [5]; Example 1, about 60 mg/day roughly 2 weeks, then about 80 mg/day for a week): noticeable change in the color and tint of their skin | skin color change (skin [5]; Example 2 coworker, 40 mg/day): slight but noticeable darkening of their skin | skin color change (skin [5]; Example 2 coworker, 80 mg/day during several week-long periods): noticeably darker | skin color change (skin [5]; Example 3 coworker, 40 mg/day for a couple of weeks): mildly darker and more tanned shade | skin color change (skin [5]; Example 4 coworker, 10 mg/day): could not detect any change in their skin color | skin coloration (skin [5]; all volunteers who ingested 30 mg or more per day): darkened coloration | skin color change (skin [5]; first inventor, 30 mg/day for three weeks): slightly perceptible color change in the palms of the hands | No Adverse Effect Level (NOAEL) [6]: 1200 mg/day | solubility in water [7]: not soluble in water | dosage response in circulating blood concentrations [8]: valid dosage response

CC1=C(/C=C/C(C)=C/C=C/C(C)=C/C=C/C=C(C)/C=C/C=C(C)/C=C/C2=C(C)CCCC2(C)C)C(C)(C)CCC1 [β-carotene]
elevation of risk of lung cancer (lung cancer): ~30% | effective dosage level to treat skin diseases [9]: 180 mg/day | oxidant properties in cultured skin cells (skin cells in culture): unexpected prooxidant properties | amount of carotenoid needed for optimal protection (human fibroblast cells): 0.40 nmol/mg protein
